Source: BindingDB's records for doi:10.1016/j.bmcl.2003.12.032 (Boehringer Ingelheim (Canada), 2004)

Assays:
[1] = Concentration required to inhibit RNA dependent RNA polymerase was determined from polio virus
[2] = Concentration required to inhibit DNA dependent RNA polymerase was determined from calf thymus
[3] = Concentration required to inhibit RNA dependent RNA polymerase was determined from polio virus; remark: listed apart in the source

Compound | IC50 [1] [µM] | IC50 [2] [µM] | IC50 [3] [µM]
O=C(O)c1ccc2[nH]cc(C[C@H](NC(=O)c3ccc4c(c3)nc(-c3ccoc3)n4C3CCCCC3)C(=O)O)c2c1 [3-{(S)-2-Carboxy-2-[(1-cyclohexyl-2-furan-3-yl-1H-benzoimidazole-5-carbonyl)-amino]-ethyl}-1H-indole-5-carboxylic acid] | > 200 | > 250 | –
O=C(N[C@@H](Cc1c[nH]c2ccc(O)cc12)C(=O)O)c1ccc2c(c1)nc(-c1ccoc1)n2C1CCCCC1 [(S)-2-[(1-Cyclohexyl-2-furan-3-yl-1H-benzoimidazole-5-carbonyl)-amino]-3-(5-hydroxy-1H-indol-3-yl)-propionic acid] | – | > 200 | 79
CS(=O)(=O)Nc1ccc2[nH]cc(C[C@H](NC(=O)c3ccc4c(c3)nc(-c3ccoc3)n4C3CCCCC3)C(=O)O)c2c1 [(S)-2-[(1-Cyclohexyl-2-furan-3-yl-1H-benzoimidazole-5-carbonyl)-amino]-3-(5-methanesulfonylamino-1H-indol-3-yl)-propionic acid] | > 500 | – | –
O=C(N[C@@H](Cc1c[nH]c2ccc(NS(=O)(=O)C(F)(F)F)cc12)C(=O)O)c1ccc2c(c1)nc(-c1ccoc1)n2C1CCCCC1 [(S)-2-[(1-Cyclohexyl-2-furan-3-yl-1H-benzoimidazole-5-carbonyl)-amino]-3-(5-trifluoromethanesulfonylamino-1H-indol-3-yl)-propionic acid] | > 250 | > 250 | –
O=C(N[C@@H](Cc1c[nH]c2ccc(-c3nnn[nH]3)cc12)C(=O)O)c1ccc2c(c1)nc(-c1ccoc1)n2C1CCCCC1 [(S)-2-[(1-Cyclohexyl-2-furan-3-yl-1H-benzoimidazole-5-carbonyl)-amino]-3-[5-(5H-tetrazol-5-yl)-1H-indol-3-yl]-propionic acid] | – | > 250 | > 200
O=C(O)C(=O)Nc1ccc2[nH]cc(C[C@H](NC(=O)c3ccc4c(c3)nc(-c3ccoc3)n4C3CCCCC3)C(=O)O)c2c1 [(S)-2-[(1-Cyclohexyl-2-furan-3-yl-1H-benzoimidazole-5-carbonyl)-amino]-3-[5-(oxalyl-amino)-1H-indol-3-yl]-propionic acid] | – | > 250 | > 250
O=C(O)COc1ccc2[nH]cc(C[C@H](NC(=O)c3ccc4c(c3)nc(-c3ccoc3)n4C3CCCCC3)C(=O)O)c2c1 [(S)-3-(5-(carboxymethoxy)-1H-indol-3-yl)-2-(1-cyclohexyl-2-(furan-3-yl)-1H-benzo[d]imidazole-5-carboxamido)propanoic acid] | – | > 200 | 100
CC(=O)Nc1ccc2[nH]cc(C[C@H](NC(=O)c3ccc4c(c3)nc(-c3ccoc3)n4C3CCCCC3)C(=O)O)c2c1 [(S)-3-(5-Acetylamino-1H-indol-3-yl)-2-[(1-cyclohexyl-2-furan-3-yl-1H-benzoimidazole-5-carbonyl)-amino]-propionic acid] | > 125 | > 250 | –
Nc1ccc2[nH]cc(C[C@H](NC(=O)c3ccc4c(c3)nc(-c3ccoc3)n4C3CCCCC3)C(=O)O)c2c1 [(S)-3-(5-Amino-1H-indol-3-yl)-2-[(1-cyclohexyl-2-furan-3-yl-1H-benzoimidazole-5-carbonyl)-amino]-propionic acid] | – | > 250 | > 500
NC(=O)c1ccc2[nH]cc(C[C@H](NC(=O)c3ccc4c(c3)nc(-c3ccoc3)n4C3CCCCC3)C(=O)O)c2c1 [(S)-3-(5-Carbamoyl-1H-indol-3-yl)-2-[(1-cyclohexyl-2-furan-3-yl-1H-benzoimidazole-5-carbonyl)-amino]-propionic acid] | > 200 | > 250 | –
CC(C)(Oc1ccc2[nH]cc(C[C@H](NC(=O)c3ccc4c(c3)nc(-c3ccoc3)n4C3CCCCC3)C(=O)O)c2c1)C(=O)O [(S)-3-[5-(1-Carboxy-1-methyl-ethoxy)-1H-indol-3-yl]-2-[(1-cyclohexyl-2-furan-3-yl-1H-benzoimidazole-5-carbonyl)-amino]-propionic acid] | > 200 | – | –
